Experimental data as given in patent US12258310B2, “Solid peroxyalphahydroxycarboxylic acid generation compositions and the use thereof” (ECOLAB USA INC., priority 2021, dated 2025).
Where “and” joins values, the source holds several entries; their conditions need not be identical. Identical values can stand only once. Values belong to the molecule of their own block, whether it stands above or below them.

Key:
[1] = Physical property (vapor pressure, odor) of alphacarboxylic acids and peroxyalphacarboxylic acids; format: physicochemical
[2] = cited from earlier work
[3] = system: Listeria monocytogenes ATCC 49594; settings: known; cited from earlier work
[4] = system: Salmonella ser. Heidelberg, Newport and Braenderup (modified to be resistant to 50 μg/mL nalidixic acid); assay: Antimicrobial efficacy on chicken carcass, 15 second dip; format: cell-based; settings: for Avg Log10 Survivors / CFU/Surface (CFU/ml × 50) / Log10 Reduction / Log10 Survivors: 15 second dip, drain time 30 minutes, room temperature
Procedure: Antimicrobial Efficacy of Peroxylactic Acid. The antimicrobial efficacy of peroxylactic acid generated from the solid peroxyalphahydroxycarboxylic acid forming composition of Table 4 was evaluated on chicken carcass against Salmonella in comparison to peroxyacetic acid (PAA). The molecular weight of PLA is 106, and PAA 76, therefore the molar equivalent base of the peracids is 500 ppm PLA equals to 359 ppm PAA.

[5] = system: Listeria monocytogenes ATCC 49594; assay: US EPA food contact suspension test (AOAC 960.09), FIG. 3; format: cell-based; settings: 100 ppm, 30 seconds
Procedure: (§1) Additional Antimicrobial Efficacy of Peroxylactic Acid. Additional antimicrobial efficacy of generated peroxylactic acid was evaluated following the US EPA food contact suspension test protocol (AOAC 960.09) against Salmonella, E. coli, Campylobacter and Listeria according to the conditions set forth in Table 12.

[6] = system: Salmonella, E. coli, Campylobacter and Listeria; assay: as above; format: cell-based; settings: as low as 25 ppm, 30 seconds
Procedure: as §1

[7] = system: Staphylococcus aureus ATCC 6538; assay: US EPA food contact suspension test (AOAC 960.09); format: cell-based; settings: 30 seconds, 500 ppm synthetic hard water, ambient (18-20° C.)
Procedure: (§2) Antimicrobial Efficacy of Peroxylactic Acid. The antimicrobial efficacy of peroxylactic acid generated from the solid peroxyalphahydroxycarboxylic acid forming composition of Table 4 was evaluated following the US EPA food contact suspension test protocol (AOAC 960.09) against Staphylococcus aureus and Escherichia coli according to the conditions set forth in Table 7.

[8] = system: Escherichia coli ATCC 11229; assay: US EPA food contact suspension test (AOAC 960.09); format: cell-based; settings: 30 seconds, 500 ppm synthetic hard water, ambient (18-20° C.)
Procedure: as §2

[9] = PLA generation kinetics and pH from solid pellet of Table 4 dissolved in DI water; format: physicochemical
Procedure: Following the successful perhydrolysis reactions of the lactide and glycolide esters, the solid composition shown in Table 4 using a lactide precursor was used to generate peroxylactic acid according to the same reaction scheme in FIG. 1. The lactide precursor was formulated into a solid pellet with citric acid and sodium percarbonate and the solid peroxyalphahydroxycarboxylic acid forming composition was added to water for the perhydrolysis reaction to generate peroxylactic acid (PLA). Beneficially, the citric acid acts as both a buffer and a dispersant or disintegrating reagent to provide effervescence to dissolve the solid composition more quickly into water and initiate the reaction of forming PLA. The reaction kinetics were evaluated by dissolving approximately 2.5 gram pellet as shown in Table 4 in 500 mL DI water to measure PLA generation and pH over time.
The PLA generation were measured on two occasions. […] The initial testing point of 10 minutes provides time for the pellet to dissolve in the water so that PLA generation can begin.
The stability of the tablets is also quantifiable by the chemistry of the reagents as they are capable of self-reacting. As a result, tablet (or solid) stability can also be assessed by the ability or capacity of the tablet to generate PLA after storage as another quantifiable mechanism to confirm stability. This is shown in Example 1, Table 6 compared to Table 5 is a direct comparison of PLA generation profiles of the tablets after 9 months of storage. […] In some embodiments it is preferred that at least about 50% or preferably at least about 80% of the PLA (or peroxyalphahydroxycarboxylic acid) generation is maintained.

[10] = approx. 2.5 gram pellet of Table 4 in 500 mL DI water, first PLA generation, 10 min
[11] = approx. 2.5 gram pellet of Table 4 in 500 mL DI water, first PLA generation, 30 min
[12] = approx. 2.5 gram pellet of Table 4 in 500 mL DI water, first PLA generation, 60 min
[13] = approx. 2.5 gram pellet of Table 4 in 500 mL DI water, first PLA generation, 90 min
[14] = approx. 2.5 gram pellet of Table 4 in 500 mL DI water, first PLA generation, 120 min
[15] = approx. 2.5 gram pellet of Table 4 in 500 mL DI water, first PLA generation, 150 min
[16] = approx. 2.5 gram pellet of Table 4 in 500 mL DI water, first PLA generation, 180 min
[17] = approx. 2.5 gram pellet of Table 4 in 500 mL DI water, first PLA generation, 210 min
[18] = approx. 2.5 gram pellet of Table 4 in 500 mL DI water, first PLA generation, 240 min
[19] = same batch of tablets stored under ambient conditions for 9 months, 20 min
[20] = same batch of tablets stored under ambient conditions for 9 months, 30 min
[21] = same batch of tablets stored under ambient conditions for 9 months, 40 min
[22] = same batch of tablets stored under ambient conditions for 9 months, 50 min
[23] = same batch of tablets stored under ambient conditions for 9 months, 60 min
[24] = same batch of tablets stored under ambient conditions for 9 months, 120 min
[25] = same batch of tablets stored under ambient conditions for 9 months, 240 min
[26] = same batch of tablets stored under ambient conditions for 9 months, 300 min
[27] = same batch of tablets stored under ambient conditions for 9 months, 360 min

- Odor [1]: Sour
SMILES: CC(=O)O [Acetic Acid]
- Vapor Pressure (20° C.) [2]: 1.56 KPa

- Odor [1]: Odorless
SMILES: O=C(O)CO [Glycolic acid]
- Vapor Pressure (20° C.) [2]: 0.003 KPa

SMILES: CC(O)C(=O)O (stereo not shown) [Lactic Acid]
- Odor [1]: No irritative odor
- Vapor Pressure (20° C.) [2]: 0.01 KPa

SMILES: CC(=O)OO [PAA, peroxyacetic acid, reference compound]
- Concentration required for greater than 7 log reduction against Listeria [3]: at least 180 ppm
- Avg Log10 Survivors ([4]; 500 ppm): 6.54 Log10
- CFU/Surface (CFU/ml × 50) ([4]; 500 ppm): 4.35E+06 CFU/Surface and 2.35E+06 CFU/Surface and 3.95E+06 CFU/Surface
- Log10 Reduction ([4]; 500 ppm): 1.09 Log10
- Log10 Survivors ([4]; 500 ppm): 6.64 Log10 and 6.37 Log10 and 6.60 Log10
- Odor [1]: Sharp pungent
- Vapor Pressure (20° C.) [2]: 2.06 KPa

SMILES: CC(O)C(=O)OO (stereo not shown) [PLA, peroxylactic acid]
- Avg Log10 Survivors ([4]; 500 ppm): 6.55 Log10
- CFU/Surface (CFU/ml × 50) ([4]; 500 ppm): 2.90E+06 CFU/Surface and 5.45E+06 CFU/Surface
- Log10 Reduction ([4]; 500 ppm): 1.08 Log10
- Log10 Survivors ([4]; 500 ppm): 6.46 Log10 and 6.74 Log10
- Micro efficacy (log reduction) compared to peroxyacetic acid ([4]; 1000 ppm): improved micro efficacy
- Avg Log10 Survivors ([4]; 1000 ppm): 6.16 Log10
- CFU/Surface (CFU/ml × 50) ([4]; 1000 ppm): 1.60E+06 CFU/Surface and 1.85E+06 CFU/Surface and 1.05E+06 CFU/Surface
- Log10 Reduction ([4]; 1000 ppm): 1.47 Log10
- Log10 Survivors ([4]; 1000 ppm): 6.20 Log10 and 6.27 Log10 and 6.02 Log10
- Avg Log10 Survivors ([4]; 2000 ppm): 6.54 Log10
- Log10 Reduction ([4]; 2000 ppm): 1.09 Log10
- Micro efficacy (log reduction) compared to peroxyacetic acid ([4]; varying concentrations): at least equivalent micro efficacy
- log reduction against Listeria [5]: greater than 7 log
- Efficacy against various microbes [6]: provides efficacy at low concentration doses
- Average Log10 Growth ([7]; 50 ppm PLA): >6.48 Log10
- CFU/ml ([7]; 50 ppm PLA): >3.00E+06 CFU/ml
- Log10 Growth ([7]; 50 ppm PLA): >6.48 Log10
- Log10 Reduction ([7]; 50 ppm PLA): <1.32 Log10
- Average Log10 Growth ([7]; 100 ppm PLA): 5.22 Log10
- CFU/ml ([7]; 100 ppm PLA): 2.20E+05 CFU/ml and 1.24E+05 CFU/ml
- Log10 Growth ([7]; 100 ppm PLA): 5.34 Log10 and 5.09 Log10
- Log10 Reduction ([7]; 100 ppm PLA): 2.58 Log10
- Average Log10 Growth ([7]; 150 ppm PLA): 2.82 Log10
- CFU/ml ([7]; 150 ppm PLA): 9.20E+02 CFU/ml and 4.80E+02 CFU/ml
- Log10 Growth ([7]; 150 ppm PLA): 2.96 Log10 and 2.68 Log10
- Log10 Reduction ([7]; 150 ppm PLA): 4.98 Log10
- Average Log10 Growth ([7]; 200 ppm PLA): <1.00 Log10
- CFU/ml ([7]; 200 ppm PLA): <1.00E+01 CFU/ml
- Log10 Growth ([7]; 200 ppm PLA): <1.00 Log10
- Log10 Reduction ([7]; 200 ppm PLA): >6.80 Log10
- Average Log10 Growth ([8]; 25 ppm PLA): 3.25 Log10
- CFU/ml ([8]; 25 ppm PLA): 1.49E+03 CFU/ml and 2.10E+03 CFU/ml
- Log10 Growth ([8]; 25 ppm PLA): 3.17 Log10 and 3.32 Log10
- Log10 Reduction ([8]; 25 ppm PLA): 4.64 Log10
- Average Log10 Growth ([8]; 50 ppm PLA): <1.00 Log10
- CFU/ml ([8]; 50 ppm PLA): <1.00E+01 CFU/ml
- Log10 Growth ([8]; 50 ppm PLA): <1.00 Log10
- Log10 Reduction ([8]; 50 ppm PLA): >6.89 Log10
- Average Log10 Growth ([8]; 100 ppm PLA): <1.00 Log10
- CFU/ml ([8]; 100 ppm PLA): <1.00E+01 CFU/ml
- Log10 Growth ([8]; 100 ppm PLA): <1.00 Log10
- Log10 Reduction ([8]; 100 ppm PLA): >6.89 Log10
- Odor [1]: Odorless
- PLA (ppm) [9, 10]: 130 ppm
- pH [9, 10]: 6.06
- PLA (ppm) [9, 11]: 222 ppm
- pH [9, 11]: 5.95
- PLA (ppm) [9, 12]: 236 ppm
- pH [9, 12]: 5.64
- PLA (ppm) [9, 13]: 217 ppm
- pH [9, 13]: 5.41
- PLA (ppm) [9, 14]: 202 ppm
- pH [9, 14]: 5.23
- PLA (ppm) [9, 15]: 188 ppm
- pH [9, 15]: 5.11
- PLA (ppm) [9, 16]: 170 ppm
- pH [9, 16]: 5.01
- PLA (ppm) [9, 17]: 152 ppm
- pH [9, 17]: 4.93
- PLA (ppm) [9, 18]: 146 ppm
- pH [9, 18]: 4.87
- PLA (ppm) ([9]; same batch of tablets stored under ambient conditions for 9 months, 10 min): 122 ppm
- PLA (ppm) [9, 19]: 150 ppm
- pH [9, 19]: 5.73
- PLA (ppm) [9, 20]: 170 ppm
- pH [9, 20]: 5.69
- PLA (ppm) [9, 21]: 198 ppm
- pH [9, 21]: 5.62
- PLA (ppm) [9, 22]: 198 ppm
- pH [9, 22]: 5.58
- PLA (ppm) [9, 23]: 200 ppm
- pH [9, 23]: 5.49
- PLA (ppm) [9, 24]: 179 ppm
- pH [9, 24]: 5.25
- PLA (ppm) ([9]; same batch of tablets stored under ambient conditions for 9 months, 180 min): 160 ppm
- PLA (ppm) [9, 25]: 129 ppm
- pH [9, 25]: 4.82
- PLA (ppm) [9, 26]: 102 ppm
- pH [9, 26]: 4.74
- PLA (ppm) [9, 27]: 85 ppm
- pH [9, 27]: 4.68
